Results published in patent US20100081632A1, “High-content and high throughput assays for identification of lipid-regulating pathways, and novel therapeutic agents for lipid disorders” (Odyssey Thera, Inc., priority 2008, published 2010).

Key:
[1] = system: PCSK9/LDLR complex; test: PCSK9/LDLR protein complementation assay (PCA) in transfected HEK293 cells; type: cell-based, human
Method: In one of the embodiments of the invention, the cell-based assay consists of transfected cDNAs encoding full-length PCSK9 and LDL receptor, each sequence linked in-frame to rationally designed fragments of a variant of green fluorescent protein. These two plasmid constructs were co-expressed in human HEK cells plated in 384-well poly-lysine coated plates. After 24-48 hours of incubation, drugs (or vehicle controls) were added to the media, and the existence and localization of PCSK9/LDL receptor complexes was quantified on an Opera automated confocal fluorescence microscopy platform (Perkin Elmer). Images were subjected to automated image analysis, and results quantified and subjected to statistical analysis.
HEK 293T cells were seeded in normal growth media containing DMEM and 10% FBS at 1.5×10^4 in PDL-coated 96-well plates 24 hours prior to transfection. Cells were transfected with 50 ng of each construct DNA per well with Fugene 6, using conditions recommended by the manufacturer. Cells were allowed to express the construct pairs for 24- or 48 h, then the cells were simultaneously fixed and stained with either a 1:300 dilution of Hoescht 33342 (Molecular Probes, Eugene, Oreg.) or a 1:1000 dilution of Draq5 (Biostatus, Shepshed, Leicestershire, U.K.) in 4% formaldehyde for 15 minutes at room temperature. The cells were washed to remove fixative, and overlaid with a small volume of Hank's Buffered Salt Solution. Images were acquired on a Discovery-1 (Molecular Devices) epifluorescence microscope using the 20× objective, and DAPI and FITC filter sets. (with excitation at 350 and 488 nm wave lengths) or on an Opera (Perkin Elmer) confocal microscope using the 20× water objective with the following excitation and emission settings: Ex 488 nm/Em 535 nm (YFP) and Ex 635 nm/Em 640 nm (Draq5).
To test for in vitro PCSK9 function and activity, we developed a protein complementation assay (PCA) with PCSK9-IFP2 and the LDL-IFP1 receptor (PCSK9/LDLR). Expression of wild type PCSK9-IFP2 in transfected HEK293 cells was confirmed by Western blot using an antibody against YFP (FIG. 2). Cotranfection of HEK cells with increasing ratios of PCSK9-IFP2 and LDLR-IFP1 DNA constructs results in increased PCA signal (FIG. 3) but not when each construct is expressed alone. The intracellular localization of the wild-type PCSK9-IFP2/LDLR-IFP1 PCA interaction is similar to the known localization of wild type PCSK9 in the endoplasmic reticulum (ER) and post-ER compartments in various cell types (20, 21). The PCA signal for the PCSK9-IFP2/LDLR-IFP1 pair appears to be localized to multiple intracellular trafficking sites including the ER, endosomes and the cell surface.
In order to test the viability of using the PCSK9-IFP2/LDLR-IFP1 PCA as a drug discovery tool, we tested a drug plate containing 50 known drugs at 3 doses in the assay (Table 10) as well as several protein kinase inhibitors (representative compounds are depicted in Table 11). […] We observed the following effects of known compounds on the PCSK9/LDLR complex:
A collection of small molecular weight compounds was screened. […] To expand on this observation, we characterized the effects of a larger panel of kinase inhibitors on the PCSK9/LDLr complex. 47 compounds representing a broad range of known receptor tyrosine and serine-threonine kinase inhibitors were assessed (table 2). A subset was identified that had inhibitory effects on the PCSK9/LDLr complex (degree of assay inhibition relative to control is indicated by “% control”, Table 2).

[2] = system: HepG2 cells; test: LDL uptake in HepG2 cells (human LDL conjugated to DyLight 549); type: cell-based; conditions: for effect on LDL uptake (in words): HepG2, 10 μM; for x-fold increase (hepatic LDL uptake): HepG2; for % Control (Table 5, titled LDL uptake in Hepg2 cells): values repeat Table 2
Excerpt: The assay uses human LDL conjugated to DyLight™ 549 as a fluorescent probe for detection of LDL uptake into HepG2 cells.
We assessED whether compounds that inhibit the PCSK9/LDLr assay would have activity on LDL uptake and metabolism in a relevant cell type. PCSK9 is thought to be a negative regulator of LDLr. Thus, we predicted that compounds inhibiting the PCSK9 PCA signal would increase LDL receptor expression and LDL uptake. An assay using human LDL conjugated to DyLight™ 549 as a fluorescent probe for detection of LDL uptake into cultured human hepatocytes. A separate assay, using an LDL receptor-specific polyclonal antibody and a DyLight™ 488-conjugated secondary antibody, was also performed to localize LDL receptors
Quantitation of the increased LDL uptake of these and other kinase inhibitors targeting Akt, mTOR, p38, GSK3 and VEGF is shown in Table 4.

## Cc1ccc(NC(=O)c2ccc(CN3CCN(C)CC3)cc2)cc1Nc1nccc(-c2cccnc2)n1 [Imatinib]
[1]
  effect on formation of PCSK9/LDLR complexes / PCA signal (in words): inhibit the formation of PCSK9/LDLR complexes
[1]; dose 10 μM
  % Control (PCSK9/LDLr PCA): 55%
[2]
  effect on LDL uptake (in words): dramatic increase in LDL uptake
[2]; dose 3 μM
  x-fold increase (LDL uptake in Hepg2 cells): 2.4 x-fold
[2]; dose 10 μM
  x-fold increase (LDL uptake in Hepg2 cells): 5.4 x-fold
  % Control (Table 5, titled LDL uptake in Hepg2 cells): 55%
[2]; dose 10 µM
  x-fold increase (hepatic LDL uptake): 5.4 x-fold
[2]; dose 3 µM
  x-fold increase (hepatic LDL uptake): 2.4 x-fold

## CCOc1cc2ncc(C#N)c(Nc3ccc(OCc4ccccn4)c(Cl)c3)c2cc1NC(=O)/C=C/CN(C)C [Neratinib]
[1]; dose 1 μM
  % Control (PCSK9/LDLr PCA): 64%
[1]; dose 3 μM
  % Control (PCSK9/LDLr PCA): 61%
[2]
  effect on LDL uptake (in words): dramatic increase in LDL uptake
[2]; dose 10 μM
  x-fold increase (LDL uptake in Hepg2 cells): 2.2 x-fold
[2]; dose 10 µM
  x-fold increase (hepatic LDL uptake): 2.2 x-fold

## Cc1ccc([N+](=O)[O-])cc1S(=O)(=O)N(C)/N=C/c1cnc2ccc(Br)cn12 [PI 3-Kalpha Inhibitor VIII, N-((1E)-(6-Bromoimidazo[1,2-a]pyridin-3-yl)methylene)-Nprime-methyl-Ndoubleprime-(2-methyl-5-nitrobenzene)sulfonohydrazide]
[1]; dose 1 μM
  % Control (PCSK9/LDLr PCA): 44%
[1]; dose 3 μM
  % Control (PCSK9/LDLr PCA): 39%
[1]; dose 10 μM
  % Control (PCSK9/LDLr PCA): 29%
[2]; dose 1 μM
  % Control (Table 5, titled LDL uptake in Hepg2 cells): 44%
[2]; dose 3 μM
  % Control (Table 5, titled LDL uptake in Hepg2 cells): 39%

## CC(C)[C@H](CO)Nc1nc(Nc2cccc(Cl)c2)c2ncn(C(C)C)c2n1 [Purvalanol A]
[1]; dose 15 μM
  % Control (PCSK9/LDLr PCA): 52%
[2]; dose 15 μM
  % Control (Table 5, titled LDL uptake in Hepg2 cells): 52%

## CNC(=O)c1cc(Oc2ccc(NC(=O)Nc3ccc(Cl)c(C(F)(F)F)c3)cc2)ccn1 [Sorafenib]
[1]; dose 3 μM
  % Control (PCSK9/LDLr PCA): 57%
[1]; dose 10 μM
  % Control (PCSK9/LDLr PCA): 58%
[2]; dose 3 μM
  % Control (Table 5, titled LDL uptake in Hepg2 cells): 57%
[2]; dose 10 μM
  % Control (Table 5, titled LDL uptake in Hepg2 cells): 58%

## COc1cc2ncnc(Nc3ccc(Oc4ccccc4)cc3)c2cc1OC [Src Kinase Inhibitor I, 4-(4-prime-Phenoxyanilino)-6,7-dimethoxyquinazoline]
[1]; dose 12.5 μM
  % Control (PCSK9/LDLr PCA): 50%
[2]
  effect on LDL uptake (in words): dramatic increase in LDL uptake
[2]; dose 3 μM
  x-fold increase (LDL uptake in Hepg2 cells): 2.3 x-fold
[2]; dose 10 μM
  x-fold increase (LDL uptake in Hepg2 cells): 5.1 x-fold
[2]; dose 10 µM
  x-fold increase (hepatic LDL uptake): 5.1 x-fold
[2]; dose 12.5 μM
  % Control (Table 5, titled LDL uptake in Hepg2 cells): 50%
[2]; dose 3 µM
  x-fold increase (hepatic LDL uptake): 2.3 x-fold

## COc1cc2c(Nc3ccc(Br)cc3F)ncnc2cc1OCC1CCN(C)CC1 [Vandetanib]
[1]; dose 100 μM
  % Control (PCSK9/LDLr PCA): 39%
[2]; dose 1 μM
  x-fold increase (LDL uptake in Hepg2 cells): 1.5 x-fold
[2]; dose 1 µM
  x-fold increase (hepatic LDL uptake): 1.5 x-fold
[2]; dose 3 μM
  x-fold increase (LDL uptake in Hepg2 cells): 2.0 x-fold
[2]; dose 3 µM
  x-fold increase (hepatic LDL uptake): 2.0 x-fold

## Indirubin-3′-Monoxime
[1]; dose 10 μM
  % Control (PCSK9/LDLr PCA): 64%
[2]; dose 10 μM
  % Control (Table 5, titled LDL uptake in Hepg2 cells): 64%
